# Assay results reported in paper PMC6120666 (The EMBO Journal, 2018).
# Legend:
# Assay in all cases: Drug affinity chromatography with c-ponatinib and LC-MS/MS (ponatinib interactome)
# Assay type in all cases: binding
# [1] = target: T1, proteins of U2OS cell lysate (Homo sapiens, UniProt O75396)
# T1 construct: Proteins enriched by c-ponatinib from U2OS cell lysate; endogenous in cells; host or cells: U2OS cell lysate
# How it was run: (§1)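 U2OS cell lysate in NP-40 lysis buffer (2 mg protein per pulldown) was incubated with amine-derivatized NHS beads for 2 h at 4 °C. Bound proteins were washed, eluted with 100 mM formic acid, reduced, alkylated and trypsin-digested, then identified by nano-UPLC–MS/MS on Orbitrap instruments with a 60 min gradient.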
# [2] = target: T2, proteins of U2OS cell lysate (Homo sapiens, UniProt Q06830)
# T2 construct: Proteins enriched by c-ponatinib from U2OS cell lysate; endogenous in cells; host or cells: U2OS cell lysate
# T2 sequence (Q06830 whole entry): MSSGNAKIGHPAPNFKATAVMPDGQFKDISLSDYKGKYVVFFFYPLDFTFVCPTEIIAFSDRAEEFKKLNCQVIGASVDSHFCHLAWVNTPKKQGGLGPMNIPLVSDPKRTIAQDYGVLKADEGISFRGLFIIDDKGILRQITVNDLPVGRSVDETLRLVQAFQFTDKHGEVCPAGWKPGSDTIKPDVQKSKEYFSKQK
# How it was run: as §1
# [3] = target: T3, proteins of U2OS cell lysate (Homo sapiens, UniProt P83436)
# T3 construct: Proteins enriched by c-ponatinib from U2OS cell lysate; endogenous in cells; host or cells: U2OS cell lysate
# How it was run: as §1
# [4] = target: T4, proteins of U2OS cell lysate (Homo sapiens, UniProt O75947)
# T4 construct: Proteins enriched by c-ponatinib from U2OS cell lysate; endogenous in cells; host or cells: U2OS cell lysate
# T4 sequence (O75947 whole entry): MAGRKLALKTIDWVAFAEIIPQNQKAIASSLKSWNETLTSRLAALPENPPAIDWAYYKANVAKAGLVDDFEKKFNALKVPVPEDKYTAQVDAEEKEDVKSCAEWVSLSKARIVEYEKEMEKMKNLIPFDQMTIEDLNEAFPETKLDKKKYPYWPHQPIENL
# How it was run: as §1
# [5] = target: T5, proteins of U2OS cell lysate (Homo sapiens, UniProt Q15393)
# T5 construct: Proteins enriched by c-ponatinib from U2OS cell lysate; endogenous in cells; host or cells: U2OS cell lysate
# How it was run: as §1
# [6] = target: T6, proteins of U2OS cell lysate (Homo sapiens, UniProt P12270)
# T6 construct: Proteins enriched by c-ponatinib from U2OS cell lysate; endogenous in cells; host or cells: U2OS cell lysate
# T6 sequence (P12270 whole entry): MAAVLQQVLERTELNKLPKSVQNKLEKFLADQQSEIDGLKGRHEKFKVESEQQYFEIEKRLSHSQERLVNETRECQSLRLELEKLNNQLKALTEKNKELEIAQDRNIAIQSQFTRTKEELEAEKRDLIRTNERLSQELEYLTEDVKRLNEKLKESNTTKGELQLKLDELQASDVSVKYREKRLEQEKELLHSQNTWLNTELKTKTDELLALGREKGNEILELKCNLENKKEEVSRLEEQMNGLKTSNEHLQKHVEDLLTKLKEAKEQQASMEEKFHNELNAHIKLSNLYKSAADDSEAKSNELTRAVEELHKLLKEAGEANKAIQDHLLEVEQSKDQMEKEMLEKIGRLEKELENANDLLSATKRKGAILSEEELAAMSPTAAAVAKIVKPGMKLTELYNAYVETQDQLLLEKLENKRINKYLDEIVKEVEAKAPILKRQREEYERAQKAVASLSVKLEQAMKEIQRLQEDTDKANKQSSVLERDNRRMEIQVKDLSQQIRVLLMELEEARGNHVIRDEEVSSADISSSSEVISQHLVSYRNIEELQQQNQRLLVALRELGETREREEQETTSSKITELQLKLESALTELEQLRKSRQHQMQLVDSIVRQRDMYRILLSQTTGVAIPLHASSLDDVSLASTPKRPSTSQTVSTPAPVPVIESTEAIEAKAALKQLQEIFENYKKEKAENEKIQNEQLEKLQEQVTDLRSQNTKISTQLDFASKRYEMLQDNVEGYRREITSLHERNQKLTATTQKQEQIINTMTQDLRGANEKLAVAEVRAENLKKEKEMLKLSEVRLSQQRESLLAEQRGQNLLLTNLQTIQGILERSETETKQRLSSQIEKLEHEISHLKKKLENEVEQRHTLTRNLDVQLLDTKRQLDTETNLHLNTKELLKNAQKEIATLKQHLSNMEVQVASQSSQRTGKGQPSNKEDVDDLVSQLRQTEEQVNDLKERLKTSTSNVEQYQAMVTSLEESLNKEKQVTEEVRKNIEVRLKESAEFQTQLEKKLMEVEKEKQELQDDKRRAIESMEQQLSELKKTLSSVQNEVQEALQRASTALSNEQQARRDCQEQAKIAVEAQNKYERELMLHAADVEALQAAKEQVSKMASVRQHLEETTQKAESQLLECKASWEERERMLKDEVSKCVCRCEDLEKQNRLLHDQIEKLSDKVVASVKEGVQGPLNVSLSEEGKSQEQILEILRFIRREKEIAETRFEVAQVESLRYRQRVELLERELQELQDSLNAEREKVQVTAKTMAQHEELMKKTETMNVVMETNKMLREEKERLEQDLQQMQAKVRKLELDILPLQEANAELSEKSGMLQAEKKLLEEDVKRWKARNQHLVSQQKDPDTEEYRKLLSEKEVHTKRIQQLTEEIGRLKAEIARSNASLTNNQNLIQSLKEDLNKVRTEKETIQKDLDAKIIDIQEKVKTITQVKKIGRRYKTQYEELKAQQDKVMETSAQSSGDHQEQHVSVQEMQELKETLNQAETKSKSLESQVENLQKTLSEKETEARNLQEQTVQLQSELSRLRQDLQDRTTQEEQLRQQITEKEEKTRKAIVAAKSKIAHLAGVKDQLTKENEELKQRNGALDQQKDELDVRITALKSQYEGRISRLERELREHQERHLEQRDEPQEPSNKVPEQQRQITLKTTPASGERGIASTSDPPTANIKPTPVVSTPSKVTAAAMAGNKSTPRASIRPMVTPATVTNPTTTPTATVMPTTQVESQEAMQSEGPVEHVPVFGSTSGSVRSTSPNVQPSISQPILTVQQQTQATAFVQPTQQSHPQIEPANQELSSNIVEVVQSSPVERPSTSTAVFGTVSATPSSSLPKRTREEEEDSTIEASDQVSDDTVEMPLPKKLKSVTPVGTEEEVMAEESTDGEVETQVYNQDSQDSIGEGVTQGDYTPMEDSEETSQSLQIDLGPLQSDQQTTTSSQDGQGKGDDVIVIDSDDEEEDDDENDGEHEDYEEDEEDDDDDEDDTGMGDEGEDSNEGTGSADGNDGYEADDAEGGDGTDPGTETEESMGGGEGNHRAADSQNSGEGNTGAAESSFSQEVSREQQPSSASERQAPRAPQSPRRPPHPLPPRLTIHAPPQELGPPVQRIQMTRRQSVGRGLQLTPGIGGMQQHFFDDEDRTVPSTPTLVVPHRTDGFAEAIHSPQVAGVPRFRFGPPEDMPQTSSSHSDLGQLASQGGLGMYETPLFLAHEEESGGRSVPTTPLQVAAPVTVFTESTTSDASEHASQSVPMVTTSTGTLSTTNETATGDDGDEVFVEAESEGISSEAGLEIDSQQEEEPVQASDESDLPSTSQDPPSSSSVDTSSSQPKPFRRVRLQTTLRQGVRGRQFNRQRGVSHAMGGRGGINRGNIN
# How it was run: as §1
# [7] = target: T7, proteins of U2OS cell lysate (Homo sapiens, UniProt Q99832)
# T7 construct: Proteins enriched by c-ponatinib from U2OS cell lysate; endogenous in cells; host or cells: U2OS cell lysate
# How it was run: as §1
# [8] = target: T8, proteins of U2OS cell lysate (Homo sapiens, UniProt Q9Y6K9)
# T8 construct: Proteins enriched by c-ponatinib from U2OS cell lysate; endogenous in cells; host or cells: U2OS cell lysate
# T8 sequence (Q9Y6K9 whole entry): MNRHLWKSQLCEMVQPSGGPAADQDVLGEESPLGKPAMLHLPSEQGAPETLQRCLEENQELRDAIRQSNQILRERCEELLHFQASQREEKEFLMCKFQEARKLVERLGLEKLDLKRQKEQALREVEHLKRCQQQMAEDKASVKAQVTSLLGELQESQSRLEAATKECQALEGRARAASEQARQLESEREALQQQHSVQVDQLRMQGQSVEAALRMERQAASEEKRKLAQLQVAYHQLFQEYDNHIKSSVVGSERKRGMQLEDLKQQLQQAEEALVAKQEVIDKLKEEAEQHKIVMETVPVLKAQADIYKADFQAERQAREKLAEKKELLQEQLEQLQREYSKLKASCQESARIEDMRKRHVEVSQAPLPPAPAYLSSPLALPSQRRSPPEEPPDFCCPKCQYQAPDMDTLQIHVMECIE
# How it was run: as §1
# [9] = target: T9, proteins of U2OS cell lysate (Homo sapiens, UniProt P40227)
# T9 construct: Proteins enriched by c-ponatinib from U2OS cell lysate; endogenous in cells; host or cells: U2OS cell lysate
# How it was run: as §1
# [10] = target: T10, proteins of U2OS cell lysate (Homo sapiens, UniProt Q14697)
# T10 construct: Proteins enriched by c-ponatinib from U2OS cell lysate; endogenous in cells; host or cells: U2OS cell lysate
# How it was run: as §1
# [11] = target: T11, proteins of U2OS cell lysate (Homo sapiens, UniProt Q12874)
# T11 construct: Proteins enriched by c-ponatinib from U2OS cell lysate; endogenous in cells; host or cells: U2OS cell lysate
# How it was run: as §1
# [12] = target: T12, proteins of U2OS cell lysate (Homo sapiens, UniProt P63244)
# T12 construct: Proteins enriched by c-ponatinib from U2OS cell lysate; endogenous in cells; host or cells: U2OS cell lysate
# How it was run: as §1
# [13] = target: T13, proteins of U2OS cell lysate (Homo sapiens, UniProt Q9UQ35)
# T13 construct: Proteins enriched by c-ponatinib from U2OS cell lysate; endogenous in cells; host or cells: U2OS cell lysate
# How it was run: as §1
# [14] = target: T14, proteins of U2OS cell lysate (Homo sapiens, UniProt O75369)
# T14 construct: Proteins enriched by c-ponatinib from U2OS cell lysate; endogenous in cells; host or cells: U2OS cell lysate
# How it was run: as §1
# [15] = target: T15, proteins of U2OS cell lysate (Homo sapiens, UniProt Q16891)
# T15 construct: Proteins enriched by c-ponatinib from U2OS cell lysate; endogenous in cells; host or cells: U2OS cell lysate
# How it was run: as §1
# [16] = target: T16, proteins of U2OS cell lysate (Homo sapiens, UniProt P19338)
# T16 construct: Proteins enriched by c-ponatinib from U2OS cell lysate; endogenous in cells; host or cells: U2OS cell lysate
# T16 sequence (P19338 whole entry): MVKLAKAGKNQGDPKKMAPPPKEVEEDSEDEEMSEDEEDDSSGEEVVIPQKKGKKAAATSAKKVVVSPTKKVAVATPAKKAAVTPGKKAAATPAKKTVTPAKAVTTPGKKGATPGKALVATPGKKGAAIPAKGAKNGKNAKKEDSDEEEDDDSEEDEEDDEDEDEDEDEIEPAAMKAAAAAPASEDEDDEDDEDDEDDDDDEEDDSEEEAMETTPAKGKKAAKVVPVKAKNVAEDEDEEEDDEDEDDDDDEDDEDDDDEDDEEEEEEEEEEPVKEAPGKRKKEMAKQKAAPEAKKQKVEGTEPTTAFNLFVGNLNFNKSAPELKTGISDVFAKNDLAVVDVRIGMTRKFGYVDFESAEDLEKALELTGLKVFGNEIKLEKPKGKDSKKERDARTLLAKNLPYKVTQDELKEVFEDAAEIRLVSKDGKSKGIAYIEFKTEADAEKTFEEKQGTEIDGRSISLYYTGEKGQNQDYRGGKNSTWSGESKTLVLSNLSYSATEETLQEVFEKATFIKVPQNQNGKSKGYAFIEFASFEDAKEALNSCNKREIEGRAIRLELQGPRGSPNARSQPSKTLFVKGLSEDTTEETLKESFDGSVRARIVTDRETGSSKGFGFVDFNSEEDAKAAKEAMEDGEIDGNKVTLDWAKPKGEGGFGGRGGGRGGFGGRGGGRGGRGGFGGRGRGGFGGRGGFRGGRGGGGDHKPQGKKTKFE
# How it was run: as §1
# [17] = target: T17, proteins of U2OS cell lysate (Homo sapiens, UniProt P62195)
# T17 construct: Proteins enriched by c-ponatinib from U2OS cell lysate; endogenous in cells; host or cells: U2OS cell lysate
# T17 sequence (P62195 whole entry): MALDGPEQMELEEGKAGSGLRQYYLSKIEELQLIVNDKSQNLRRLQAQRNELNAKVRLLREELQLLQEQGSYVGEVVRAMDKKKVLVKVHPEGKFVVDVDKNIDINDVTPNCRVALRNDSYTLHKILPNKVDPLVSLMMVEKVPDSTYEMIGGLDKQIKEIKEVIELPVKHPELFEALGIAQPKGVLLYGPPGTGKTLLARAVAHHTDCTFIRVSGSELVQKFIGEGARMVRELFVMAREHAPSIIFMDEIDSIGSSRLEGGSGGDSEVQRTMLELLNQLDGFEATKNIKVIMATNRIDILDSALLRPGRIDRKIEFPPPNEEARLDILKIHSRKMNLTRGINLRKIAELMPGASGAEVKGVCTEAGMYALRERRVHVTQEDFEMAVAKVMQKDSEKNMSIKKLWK
# How it was run: as §1
# [18] = target: T18, proteins of U2OS cell lysate (Homo sapiens, UniProt Q96P70)
# T18 construct: Proteins enriched by c-ponatinib from U2OS cell lysate; endogenous in cells; host or cells: U2OS cell lysate
# How it was run: as §1
# [19] = target: T19, proteins of U2OS cell lysate (Homo sapiens, UniProt Q9Y262)
# T19 construct: Proteins enriched by c-ponatinib from U2OS cell lysate; endogenous in cells; host or cells: U2OS cell lysate
# T19 sequence (Q9Y262 whole entry): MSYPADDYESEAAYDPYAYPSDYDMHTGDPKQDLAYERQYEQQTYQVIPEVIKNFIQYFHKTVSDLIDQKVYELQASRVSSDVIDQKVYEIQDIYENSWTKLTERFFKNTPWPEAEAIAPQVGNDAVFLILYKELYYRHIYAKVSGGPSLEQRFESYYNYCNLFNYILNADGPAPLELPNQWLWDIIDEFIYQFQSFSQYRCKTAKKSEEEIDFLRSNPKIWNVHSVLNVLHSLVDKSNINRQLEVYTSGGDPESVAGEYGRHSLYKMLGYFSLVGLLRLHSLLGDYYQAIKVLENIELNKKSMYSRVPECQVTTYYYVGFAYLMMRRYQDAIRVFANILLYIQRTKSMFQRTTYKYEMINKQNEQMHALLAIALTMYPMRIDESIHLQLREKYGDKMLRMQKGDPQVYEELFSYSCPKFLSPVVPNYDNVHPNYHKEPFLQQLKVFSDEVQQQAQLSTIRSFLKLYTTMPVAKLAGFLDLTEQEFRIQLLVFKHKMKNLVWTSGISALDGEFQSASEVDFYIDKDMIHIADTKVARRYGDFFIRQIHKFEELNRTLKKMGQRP
# How it was run: as §1
# T1 sequence (O75396 whole entry): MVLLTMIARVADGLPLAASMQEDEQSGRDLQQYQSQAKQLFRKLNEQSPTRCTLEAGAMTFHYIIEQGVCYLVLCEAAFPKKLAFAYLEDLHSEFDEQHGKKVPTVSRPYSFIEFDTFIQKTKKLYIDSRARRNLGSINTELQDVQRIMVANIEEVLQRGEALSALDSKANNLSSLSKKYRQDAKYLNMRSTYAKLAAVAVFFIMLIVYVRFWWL
structure (smiles),measurement,setting,value
Cc1ccc(C(=O)Nc2ccc(CN3CCN(C)CC3)c(C(F)(F)F)c2)cc1C#Cc1cnc2cccnn12 [PON],Average LFQ PON_WT,"[1]; SEC22B, Vesicle-trafficking protein SEC22b",22.7294
same,Average LFQ PON_WT,"[2]; PRDX1, Peroxiredoxin-1",22.2382
same,Average LFQ PON_WT,"[3]; COG7, Conserved oligomeric Golgi complex subunit 7",22.1578
same,Average LFQ PON_WT,"[4]; ATP5H, ATP synthase subunit d, mitochondrial",23.183
same,Average LFQ PON_WT,"[5]; SF3B3, Splicing factor 3B subunit 3",22.7469
same,Average LFQ PON_WT,"[6]; TPR, Nucleoprotein TPR",22.5124
same,Average LFQ PON_WT,"[7]; CCT7, T-complex protein 1 subunit eta",22.9495
same,Average LFQ PON_WT,"[8]; IKBKG, NF-kappa-B essential modulator",21.7256
same,Average LFQ PON_WT,"[9]; CCT6A, T-complex protein 1 subunit zeta",22.8673
same,Average LFQ PON_WT,"[10]; GANAB, Neutral alpha-glucosidase AB",22.2601
same,Average LFQ PON_WT,"[11]; SF3A3, Splicing factor 3A subunit 3",21.5172
same,Average LFQ PON_WT,"[12]; GNB2L1, Guanine nucleotide-binding protein subunit beta-2-like 1",22.5999
same,Average LFQ PON_WT,"[13]; SRRM2, Serine/arginine repetitive matrix protein 2",21.862
same,Average LFQ PON_WT,"[14]; FLNB, Filamin-B",21.8609
same,Average LFQ PON_WT,"[15]; IMMT, Mitochondrial inner membrane protein",22.0335
same,Average LFQ PON_WT,"[16]; NCL, Nucleolin",23.1289
same,Average LFQ PON_WT,"[17]; PSMC5, 26S protease regulatory subunit 8",22.2388
same,Average LFQ PON_WT,"[18]; IPO9, Importin-9",21.5093
same,Average LFQ PON_WT,"[19]; EIF3L, Eukaryotic translation initiation factor 3 subunit L",22.8981
"Cc1ccc(C(=O)Nc2ccc(CN3CCN(CCCN)CC3)c(C(F)(F)F)c2)cc1C#Cc1cnc2cccnn12 [c-ponatinib, reference compound]",Average LFQ intensity,"[1]; captured protein SEC22B, Rank 146",22.7294
same,Average LFQ intensity,"[2]; captured protein PRDX1, Rank 177",22.2382
same,Average LFQ intensity,"[3]; captured protein COG7, Rank 182",22.1578
same,Average LFQ intensity,"[4]; captured protein ATP5H, Rank 115",23.183
same,Average LFQ intensity,"[5]; captured protein SF3B3, Rank 141",22.7469
same,Average LFQ intensity,"[6]; captured protein TPR, Rank 156",22.5124
same,Average LFQ intensity,"[7]; captured protein CCT7, Rank 127",22.9495
same,Average LFQ intensity,"[8]; captured protein IKBKG, Rank 212",21.7256
same,Average LFQ intensity,"[9]; captured protein CCT6A, Rank 133",22.8673
same,Average LFQ intensity,"[10]; captured protein GANAB, Rank 172",22.2601
same,Average LFQ intensity,"[11]; captured protein SF3A3, Rank 228",21.5172
same,Average LFQ intensity,"[12]; captured protein GNB2L1, Rank 153",22.5999
same,Average LFQ intensity,"[13]; captured protein SRRM2, Rank 197",21.862
same,Average LFQ intensity,"[14]; captured protein FLNB, Rank 198",21.8609
same,Average LFQ intensity,"[15]; captured protein IMMT, Rank 188",22.0335
same,Average LFQ intensity,"[16]; captured protein NCL, Rank 117",23.1289
same,Average LFQ intensity,"[17]; captured protein PSMC5, Rank 176",22.2388
same,Average LFQ intensity,"[18]; captured protein IPO9, Rank 229",21.5093
same,Average LFQ intensity,"[19]; captured protein EIF3L, Rank 130",22.8981
